Values after ≈ are worked out from the molar mass of the structure shown. Active and inactive are the calls of the source. The calls are words filed in the database; no cut-off is given here.
Tests used:
[1] = biological target: Cyclin-dependent kinase 9 (Mus musculus) (UniProt Q99J95); test: In-vivo inhibition of CDK9 in mouse xenografted with human MV4-11 cells assessed as reduction in Mcl-1 at 5 to 15 mg/kg, ip BID administered at 2 hrs dose interval with 2 days on and 5 days off dosing schedule by Western blot analysis; assay type: functional, organism-based; conditions: dose 5-15 mg/kg
Chain of Cyclin-dependent kinase 9 (Mus musculus) (Q99J95 whole entry): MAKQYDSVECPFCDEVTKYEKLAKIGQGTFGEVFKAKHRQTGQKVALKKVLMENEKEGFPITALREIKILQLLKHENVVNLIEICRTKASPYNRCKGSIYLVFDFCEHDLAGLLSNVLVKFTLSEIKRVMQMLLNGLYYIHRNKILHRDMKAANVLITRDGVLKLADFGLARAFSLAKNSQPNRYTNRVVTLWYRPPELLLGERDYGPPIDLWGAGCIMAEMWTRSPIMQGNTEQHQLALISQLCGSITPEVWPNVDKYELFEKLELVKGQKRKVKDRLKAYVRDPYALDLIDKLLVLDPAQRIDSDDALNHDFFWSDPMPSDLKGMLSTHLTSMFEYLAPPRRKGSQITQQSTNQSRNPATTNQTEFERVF

[2] = biological target: Cyclin-dependent kinase 9 (Mus musculus) (UniProt Q99J95); test: In-vivo inhibition of CDK9 in CB17 SCID mouse xenografted with human NOMO1 cells assessed as reduction in RNA Polymerase 2 CTD phosphorylation at Ser2 residues administered intraperitoneally twice at 2 hrs dosing interval with 2 days on and 5 days off dosing schedule by Western blot analysis; assay type: functional; conditions: dose 5-15 mg/kg
MV4-11 = test: Antitumor activity against human MV4-11 cells xenografted in ip dosed CB17 SCID mouse assessed as cell death administered twice daily at 2 hrs dose interval with 2 days on and 5 days off dosing schedule; assay type: functional, organism-based
[3] = Drug metabolism in human hepatocytes assessed 3-(4-(2-((1S,3R)-3-acetamidocyclohexanecarboxamido)-5-chloropyridin-4-yl)-1H-pyrazol-5-yl)-2,2-dimethylpropanoic acid metabolite formation; assay type: ADME, cell-based, Hepatocyte
[4] = Half-life in cynomolgus monkey at 0.46 umol/kg, iv administered over 0.25 hrs formulated as solution in DMA/PEG400/Tween80; assay type: ADME, organism-based, Macaca fascicularis; conditions: in vivo, dose 0.46 µmol/kg
[5] = Volume of distribution at steady state in Beagle dog at 0.23 umol/kg, iv administered over 0.25 hrs formulated as solution in 10% DMSO/90% water; assay type: ADME, organism-based, Canis lupus familiaris; conditions: in vivo, dose 0.23 µmol/kg, read-out: Vdss
[6] = Clearance in mouse plasma at 2.3 umol/kg, iv formulated as solution; assay type: ADME, organism-based; conditions: dose 2.3 µmol/kg
[7] = biological target: Dual specificity tyrosine-phosphorylation-regulated kinase 1A (Homo sapiens) (UniProt Q13627); test: Inhibition of human recombinant full length GST-tagged DYRK1A expressed in baculovirus infected cells at 0.1 uM incubated for 60 mins by TR-FRET based LanthaScreen Eu kinase binding assay relative to control
[8] = biological target: Mitogen-activated protein kinase 15 (Homo sapiens) (UniProt Q8TD08); test: Inhibition of human recombinant N-terminal FLAG-tagged ERK7 expressed in Sf9 insect cells at 0.1 uM incubated for 60 mins by TR-FRET based LanthaScreen Eu kinase binding assay relative to control
Chain of Mitogen-activated protein kinase 15 (Homo sapiens) (Q8TD08 whole entry): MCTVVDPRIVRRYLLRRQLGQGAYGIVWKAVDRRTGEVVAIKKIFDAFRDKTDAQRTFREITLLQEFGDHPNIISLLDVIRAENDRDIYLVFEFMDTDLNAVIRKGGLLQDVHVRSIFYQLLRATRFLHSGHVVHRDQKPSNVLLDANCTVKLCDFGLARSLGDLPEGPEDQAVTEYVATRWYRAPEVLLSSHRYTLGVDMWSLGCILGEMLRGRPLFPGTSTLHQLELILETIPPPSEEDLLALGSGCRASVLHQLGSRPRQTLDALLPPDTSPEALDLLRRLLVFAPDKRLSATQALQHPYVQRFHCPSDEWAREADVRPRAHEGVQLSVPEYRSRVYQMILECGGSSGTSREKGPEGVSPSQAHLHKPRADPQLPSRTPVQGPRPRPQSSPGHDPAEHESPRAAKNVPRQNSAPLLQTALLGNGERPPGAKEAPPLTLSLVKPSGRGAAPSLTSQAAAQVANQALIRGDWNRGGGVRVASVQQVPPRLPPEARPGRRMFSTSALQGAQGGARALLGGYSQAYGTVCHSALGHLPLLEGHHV

[9] = biological target: Glycogen synthase kinase-3 beta (Homo sapiens, UniProt P49841); test: Inhibition of GSK3beta (unknown origin) at 0.1 uM incubated for 60 mins by TR-FRET based LanthaScreen Eu kinase binding assay relative to control
Chain of Glycogen synthase kinase-3 beta (P49841 whole entry, looked up): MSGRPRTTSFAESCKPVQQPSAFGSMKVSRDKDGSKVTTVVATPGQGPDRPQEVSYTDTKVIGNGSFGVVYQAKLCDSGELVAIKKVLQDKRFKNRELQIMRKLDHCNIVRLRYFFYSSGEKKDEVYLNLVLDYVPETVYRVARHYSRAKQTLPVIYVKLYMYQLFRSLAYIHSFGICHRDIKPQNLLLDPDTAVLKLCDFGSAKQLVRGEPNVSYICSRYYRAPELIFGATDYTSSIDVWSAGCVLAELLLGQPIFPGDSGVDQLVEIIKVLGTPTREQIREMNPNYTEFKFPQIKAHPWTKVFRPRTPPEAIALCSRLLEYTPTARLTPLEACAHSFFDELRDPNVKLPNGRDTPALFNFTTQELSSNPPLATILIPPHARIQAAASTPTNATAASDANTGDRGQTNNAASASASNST

[10] = biological target: Insulin receptor (Homo sapiens) (UniProt P06213); test: Inhibition of human recombinant INSR using KKKSPGEYVNIEF as substrate at 1 uM incubated for 40 mins in presence of [gamma32P]-ATP by scintillation counting method relative to control
Chain of Insulin receptor (Homo sapiens) (P06213 28-758 limits assumed): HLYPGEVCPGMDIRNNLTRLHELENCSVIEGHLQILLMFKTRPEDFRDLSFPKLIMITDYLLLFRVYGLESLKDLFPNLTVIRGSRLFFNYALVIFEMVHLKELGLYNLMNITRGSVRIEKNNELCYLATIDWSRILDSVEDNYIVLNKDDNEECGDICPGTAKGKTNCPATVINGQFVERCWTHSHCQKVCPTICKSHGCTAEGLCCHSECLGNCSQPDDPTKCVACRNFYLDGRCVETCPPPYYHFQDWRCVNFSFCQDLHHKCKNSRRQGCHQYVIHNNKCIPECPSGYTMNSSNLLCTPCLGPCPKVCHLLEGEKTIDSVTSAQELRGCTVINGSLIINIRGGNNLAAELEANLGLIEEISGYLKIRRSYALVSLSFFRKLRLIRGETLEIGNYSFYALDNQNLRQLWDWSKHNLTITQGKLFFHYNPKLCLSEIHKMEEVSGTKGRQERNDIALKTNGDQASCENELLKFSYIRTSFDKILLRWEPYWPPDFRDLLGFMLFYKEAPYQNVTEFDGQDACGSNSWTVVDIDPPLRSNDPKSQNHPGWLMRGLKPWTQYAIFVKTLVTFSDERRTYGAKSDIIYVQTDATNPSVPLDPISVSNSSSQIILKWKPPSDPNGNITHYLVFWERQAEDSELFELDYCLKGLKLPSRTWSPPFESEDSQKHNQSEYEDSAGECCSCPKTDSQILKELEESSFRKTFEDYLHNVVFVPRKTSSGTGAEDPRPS
Chain of Insulin receptor (Homo sapiens) (P06213 763-1382 limits assumed): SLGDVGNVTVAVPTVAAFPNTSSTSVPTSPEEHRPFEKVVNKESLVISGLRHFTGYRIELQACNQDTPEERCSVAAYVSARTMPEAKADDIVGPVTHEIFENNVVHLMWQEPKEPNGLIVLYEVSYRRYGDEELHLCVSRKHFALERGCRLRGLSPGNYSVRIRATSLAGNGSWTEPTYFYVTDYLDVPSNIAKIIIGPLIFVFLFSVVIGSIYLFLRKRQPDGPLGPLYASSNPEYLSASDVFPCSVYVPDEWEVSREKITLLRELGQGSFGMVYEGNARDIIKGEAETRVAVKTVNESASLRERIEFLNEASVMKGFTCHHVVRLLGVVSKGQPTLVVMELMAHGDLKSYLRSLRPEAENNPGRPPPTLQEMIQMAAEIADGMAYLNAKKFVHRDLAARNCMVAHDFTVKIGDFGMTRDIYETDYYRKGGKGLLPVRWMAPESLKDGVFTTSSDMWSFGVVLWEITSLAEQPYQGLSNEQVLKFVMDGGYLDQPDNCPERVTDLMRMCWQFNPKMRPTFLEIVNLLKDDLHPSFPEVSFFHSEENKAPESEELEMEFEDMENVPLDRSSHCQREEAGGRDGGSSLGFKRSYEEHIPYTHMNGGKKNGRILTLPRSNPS

[11] = biological target: Casein kinase I isoform gamma-2 (Homo sapiens, UniProt P78368); test: Inhibition of CK1gamma2 (unknown origin) in presence of 5 mM ATP
Chain of Casein kinase I isoform gamma-2 (P78368 whole entry, canonical isoform): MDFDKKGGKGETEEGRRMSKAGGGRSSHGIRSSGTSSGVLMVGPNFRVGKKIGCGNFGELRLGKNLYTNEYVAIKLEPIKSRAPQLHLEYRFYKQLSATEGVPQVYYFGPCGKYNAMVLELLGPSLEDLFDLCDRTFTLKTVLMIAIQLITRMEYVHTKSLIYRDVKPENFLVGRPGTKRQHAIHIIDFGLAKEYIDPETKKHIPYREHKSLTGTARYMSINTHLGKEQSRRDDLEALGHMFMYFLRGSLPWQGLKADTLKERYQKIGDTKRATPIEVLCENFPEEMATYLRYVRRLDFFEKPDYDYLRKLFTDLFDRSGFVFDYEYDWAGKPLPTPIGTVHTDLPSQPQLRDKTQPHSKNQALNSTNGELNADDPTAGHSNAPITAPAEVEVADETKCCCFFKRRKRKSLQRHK

[12] = biological target: Dual specificity tyrosine-phosphorylation-regulated kinase 2 (Homo sapiens, UniProt Q92630); test: Inhibition of DYRK2 (unknown origin) in presence of 5 mM ATP
Chain of Dual specificity tyrosine-phosphorylation-regulated kinase 2 (Q92630 whole entry, the tested form may be a part): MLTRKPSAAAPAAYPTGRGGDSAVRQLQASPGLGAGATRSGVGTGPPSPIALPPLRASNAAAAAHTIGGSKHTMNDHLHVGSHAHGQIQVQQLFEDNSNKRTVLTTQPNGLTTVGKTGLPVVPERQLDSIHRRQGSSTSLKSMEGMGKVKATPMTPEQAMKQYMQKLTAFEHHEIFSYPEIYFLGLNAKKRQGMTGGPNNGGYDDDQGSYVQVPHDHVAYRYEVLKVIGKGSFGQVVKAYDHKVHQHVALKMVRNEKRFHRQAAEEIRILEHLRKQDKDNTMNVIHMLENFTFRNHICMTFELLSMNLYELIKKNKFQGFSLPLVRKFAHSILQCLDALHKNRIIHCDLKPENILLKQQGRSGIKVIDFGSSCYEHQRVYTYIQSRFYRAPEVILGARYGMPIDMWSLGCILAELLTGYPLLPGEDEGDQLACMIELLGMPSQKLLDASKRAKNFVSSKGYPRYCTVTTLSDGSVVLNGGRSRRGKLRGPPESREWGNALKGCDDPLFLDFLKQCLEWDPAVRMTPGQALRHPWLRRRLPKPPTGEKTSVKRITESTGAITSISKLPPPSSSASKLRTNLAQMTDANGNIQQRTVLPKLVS

Homo sapiens [13] = organism: Homo sapiens; test: Selectivity ratio of IC50 for human recombinant N-terminal GST-TEV tagged CDK12 (696 to 1082 residues)/full length human CyclinK expressed in baculovirus expression system to IC50 for Inhibition of recombinant full length human N-terminal GST-fused CDK9 (1 to 372 residues)/His-tagged CyclinT1 (1 to 726 residues) expressed in baculovirus infected insect cells
Homo sapiens [14] = organism: Homo sapiens; test: Selectivity ratio of IC50 for CDK5 (unknown origin) in presence of 5 mM ATP to IC50 for Inhibition of recombinant full length human N-terminal GST-fused CDK9 (1 to 372 residues)/His-tagged CyclinT1 (1 to 726 residues) expressed in baculovirus infected insect cells
Homo sapiens [15] = organism: Homo sapiens; test: Selectivity ratio of IC50 for CDK3 (unknown origin) in presence of 5 mM ATP to IC50 for Inhibition of recombinant full length human N-terminal GST-fused CDK9 (1 to 372 residues)/His-tagged CyclinT1 (1 to 726 residues) expressed in baculovirus infected insect cells
[16] = Drug metabolism in human liver microsomes assessed as (1S,3R)-3-acetamido-N-(5-fluoro-4-(5-(3-hydroxy-2,2-dimethylpropyl)-1H-pyrazol-4-yl)pyridin-2-yl)cyclohexanecarboxamide formation at 10 uM measured after 1 hr in presence of NADPH by LC-UV-MS analysis; assay type: ADME, Microsome
[17] = Drug metabolism in human hepatocytes assessed as (1S,3R)-3-acetamido-N-(5-fluoro-4-(5-(3-hydroxy-2,2-dimethylpropyl)-1H-pyrazol-4-yl)pyridin-2-yl)cyclohexanecarboxamide metabolite formation; assay type: ADME, cell-based, Hepatocyte
[18] = Drug metabolism in human hepatocytes assessed as (1S,3R)-3-acetamido-N-(5-fluoro-4-(6-hydroxy-5,5-dimethyl-5,6-dihydro-4H-pyrrolo[1,2-b]pyrazol-3-yl)pyridin-2-yl)cyclohexanecarboxamide metabolite formation; assay type: ADME, cell-based, Hepatocyte
[19] = Volume of distribution at steady state in mouse at […], iv formulated as solution; assay type: ADME, organism-based; conditions: in vivo, read-out: Vdss
[20] = Clearance in Beagle dog plasma at […], iv administered as 0.25 hrs infusion; assay type: ADME, organism-based, Canis lupus familiaris; conditions: dose 0.24 µmol/kg
[21] = Clearance in mouse plasma at […], iv; assay type: ADME; conditions: dose 2.4 µmol/kg
[22] = biological target: CDK2/Cyclin A2 (Homo sapiens) (UniProt P24941+P20248); test: Inhibition of human recombinant full-length CDK2/CyclinA expressed in Sf21 insect cells using Histone H1 as substrate at 1 uM incubated for 40 mins in presence of [gamma32P]-ATP by scintillation counting method relative to control
CDK9/cyclin T1 [23] = biological target: CDK9/cyclin T1 (Homo sapiens, UniProt O60563+P50750); test: Binding affinity to human CDK9/CyclinT assessed as dissociation rate constant by surface plasmon resonance analysis; assay type: protein-complex assay
Chain of CDK9/cyclin T1 (Homo sapiens, UniProt O60563+P50750) (O60563 whole entry): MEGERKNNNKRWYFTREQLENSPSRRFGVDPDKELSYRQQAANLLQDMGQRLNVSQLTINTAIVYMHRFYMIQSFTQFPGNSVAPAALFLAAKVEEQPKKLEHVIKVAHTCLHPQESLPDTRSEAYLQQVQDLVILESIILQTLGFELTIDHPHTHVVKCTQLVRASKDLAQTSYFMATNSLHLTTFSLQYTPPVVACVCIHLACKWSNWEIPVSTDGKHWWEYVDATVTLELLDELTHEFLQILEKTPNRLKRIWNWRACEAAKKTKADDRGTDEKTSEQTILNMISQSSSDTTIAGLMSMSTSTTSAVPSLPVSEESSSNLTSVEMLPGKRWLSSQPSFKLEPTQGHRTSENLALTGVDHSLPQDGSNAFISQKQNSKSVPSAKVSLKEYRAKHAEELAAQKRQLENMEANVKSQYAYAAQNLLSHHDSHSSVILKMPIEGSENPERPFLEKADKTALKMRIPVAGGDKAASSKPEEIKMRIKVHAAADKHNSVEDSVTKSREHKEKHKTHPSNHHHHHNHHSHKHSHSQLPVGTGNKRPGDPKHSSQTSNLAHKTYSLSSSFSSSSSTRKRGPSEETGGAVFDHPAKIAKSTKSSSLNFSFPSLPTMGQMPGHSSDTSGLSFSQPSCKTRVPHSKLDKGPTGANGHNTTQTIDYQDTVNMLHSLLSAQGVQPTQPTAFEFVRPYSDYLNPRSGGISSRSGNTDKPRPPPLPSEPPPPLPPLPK
Chain of CDK9/cyclin T1 (Homo sapiens, UniProt O60563+P50750) (P50750 whole entry): as the sequence (Q99J95 whole entry) above, with T17S, K37R, Q40K, K258N, F262Y counted along it

CDK9/cyclin T1 [24] = biological target: CDK9/cyclin T1 (Homo sapiens, UniProt P50750); test: Binding affinity to human CDK9/CyclinT assessed as equilibrium dissociation constant by surface plasmon resonance analysis; assay type: protein-complex assay
Chain of CDK9/cyclin T1 (Homo sapiens, UniProt P50750) (O60563 whole entry): as the sequence (O60563 whole entry) above
Chain of CDK9/cyclin T1 (Homo sapiens, UniProt P50750) (P50750 whole entry): as the sequence (Q99J95 whole entry) above, with T17S, K37R, Q40K, K258N, F262Y counted along it

[25] = Solubility of compound in pH 4 0.1 M acetate buffer using crystalline form of sample; assay type: physicochemical
[26] = Drug metabolism in human liver microsome assessed as 4-(4-(2-((1S,3R)-3-acetamidocyclohexanecarboxamido)-5-chloropyridin-4-yl)-1H-pyrazol-5-yl)butanoic acid formation at 10 uM measured after 1 hr in presence of NADPH by LC-UV-MS analysis; assay type: ADME; conditions: microsomes
[27] = Half-life in Beagle dog at 5.2 umol/kg, iv administered over 0.25 hrs formulated as solution in 5% DMSO; assay type: ADME, organism-based, Canis lupus familiaris; conditions: in vivo, dose 5.2 µmol/kg
[28] = Volume of distribution at steady state in Beagle dog at 5.2 umol/kg, iv administered as 0.25 hrs formulated as solution in 5% DMSO; assay type: ADME, organism-based, Canis lupus familiaris; conditions: in vivo, dose 5.2 µmol/kg, read-out: Vdss
[29] = Clearance in mouse plasma at […], iv formulated as solution; assay type: ADME, organism-based; conditions: dose 4.8 µmol/kg
[30] = Clearance in Beagle dog plasma at 5.2 umol/kg, iv administered over 0.25 hrs formulated as solution in 5% DMSO; assay type: ADME, organism-based, Canis lupus familiaris; conditions: dose 5.2 µmol/kg

CC(=O)N[C@@H]1CCC[C@H](C(=O)Nc2cc(-c3cnn4c3CC(C)(C)C4)c(Cl)cn2)C1 [ZEMIRCICLIB]
inhibition [1]: Active | inhibition [2]: Dose-dependent effect | Activity (MV4-11): Dose-dependent effect | Drug metabolism [3]: Metabolite_Detected | half-life [4]: 53.4 min | Vd [5]: 0.67 L/kg | clearance [6]: 55 mL/min/kg | inhibition [7]: 80% | inhibition [8]: 83% | inhibition [9]: 100% | inhibition [10]: 83% | IC50 [11]: 6.66 µM | IC50 [12]: 8.62 µM

CC(=O)N[C@@H]1CCC[C@H](C(=O)Nc2cc(-c3cnn4c3CC(C)(C)C4)c(F)cn2)C1
Ratio IC50 (Homo sapiens [13]): 16 | Ratio IC50 (Homo sapiens [14]): 16 | Ratio IC50 (Homo sapiens [15]): 5 | Drug metabolism [16]: Metabolite_Detected | Drug metabolism [17]: Metabolite_Detected | Drug metabolism [18]: Metabolite_Detected | Vd ([19]; dose 2.4 µmol/kg): 0.49 L/kg | clearance at 0.25 h [20]: 53 mL/min/kg | clearance [21]: 70 mL/min/kg | inhibition [22]: 100% | koff (CDK9/cyclin T1 [23]): 569 10^-6/s | Kd (CDK9/cyclin T1 [24]): 0.000123 µM

CC(=O)N[C@@H]1CCC[C@H](C(=O)Nc2cc(-c3cnn4c3CCCC4)c(Cl)cn2)C1
solubility thermodynamic [25]: 210 µg/mL (≈ 505 µM) | Drug metabolism [26]: Metabolite_Detected | Vd ([19]; dose 4.8 µmol/kg): 0.65 L/kg | half-life [27]: 30 min | Vd [28]: 0.9 L/kg | inhibition [22]: 93% | clearance [29]: 65 mL/min/kg | clearance [30]: 30 mL/min/kg
